What is called clearance is the rate of elimination divided by the concentration. One may read the logP as a log measure of how a compound divides between an organic and an aqueous phase. The bioavailability is dose-corrected exposure relative to a reference, in per cent. In general, AUC refers to the area under the concentration-time curve, a measure of exposure. Broadly, the Vd is the apparent volume that relates the amount in the body to the concentration in plasma or blood. Usually Cmax stands for the highest concentration seen after dosing. One may read the half-life as the time needed for the level to fall by half in the phase considered. In general, ED50 refers to the midpoint of the dose-response relation. A word on the EC50: it is the concentration giving half of the maximal effect.

These results are taken from ChEMBL document CHEMBL1145887, “Large dimeric ligands with favorable pharmacokinetic properties and peroxisome proliferator-activated receptor agonist activity in vitro and in vivo” (J Med Chem, 2003).

Data set [1] is described as follows: Clearance in rat. It is filed as ADME, organism-based. The settings on record: in vivo.
Data set [2] is described as follows: Partition coefficient (logP). It is filed as physicochemical. The settings on record: octanol/water.
The nature of data set [3]: Oral bioavailability in rat. It is filed as ADME, organism-based. The settings on record: in vivo.
The nature of data set [4]: Area under the plasma concentration-time curve in rat after peroral administration. It is filed as ADME, organism-based. The settings on record: po.
The nature of data set [5]: Volume of distribution during steady state in rat. The settings on record: in vivo.
Data set [6] can be described thus: Maximum plasma concentration in rat after peroral administration. It is filed as ADME, organism-based. More on the design: route oral. The settings on record: po.
Data set [7] can be described thus: Oral half-life in rat after peroral administration. It is filed as ADME, organism-based. The settings on record: in vivo.
The test system of data set [8] is Mus musculus. Kind of data set: In vivo insulin effect in db/db mice after oral treatment. It is filed as functional.
The subject of data set [9] is Mus musculus. Kind of data set: In vivo nonfasting blood glucose in db/db mice after oral treatment. It is filed as functional.
The test system of data set [10] is Mus musculus. Kind of data set: In vivo nonfasting triglyceride in db/db mice after oral treatment. It is filed as functional.
The species named for data set [11] is Mus musculus. Put plainly: Area under blood glucose time curve after oral glucose test in mice. It is filed as functional.
Data set [12] has as its target T1, Peroxisome proliferator-activated receptor delta (Homo sapiens, UniProt Q03181).
T1 sequence (Q03181 whole entry): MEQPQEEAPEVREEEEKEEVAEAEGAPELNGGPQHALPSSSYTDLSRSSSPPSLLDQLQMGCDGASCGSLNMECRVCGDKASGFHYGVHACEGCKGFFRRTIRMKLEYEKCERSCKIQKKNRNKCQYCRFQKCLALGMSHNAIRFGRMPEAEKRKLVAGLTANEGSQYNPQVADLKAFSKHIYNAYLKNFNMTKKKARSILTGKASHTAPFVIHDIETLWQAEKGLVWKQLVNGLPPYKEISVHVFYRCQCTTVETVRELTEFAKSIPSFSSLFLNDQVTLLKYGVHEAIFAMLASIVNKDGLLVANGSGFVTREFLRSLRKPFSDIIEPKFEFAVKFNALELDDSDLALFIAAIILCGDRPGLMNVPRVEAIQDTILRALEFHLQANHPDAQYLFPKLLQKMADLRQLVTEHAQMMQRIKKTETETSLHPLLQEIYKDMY
Put plainly: In vitro transactivation of human Peroxisome proliferator activated receptor delta (hPPARdelta).

For data set [13], the target named is T2, Peroxisome proliferator-activated receptor alpha (Rattus norvegicus, UniProt P37230).
T2 sequence (P37230 whole entry): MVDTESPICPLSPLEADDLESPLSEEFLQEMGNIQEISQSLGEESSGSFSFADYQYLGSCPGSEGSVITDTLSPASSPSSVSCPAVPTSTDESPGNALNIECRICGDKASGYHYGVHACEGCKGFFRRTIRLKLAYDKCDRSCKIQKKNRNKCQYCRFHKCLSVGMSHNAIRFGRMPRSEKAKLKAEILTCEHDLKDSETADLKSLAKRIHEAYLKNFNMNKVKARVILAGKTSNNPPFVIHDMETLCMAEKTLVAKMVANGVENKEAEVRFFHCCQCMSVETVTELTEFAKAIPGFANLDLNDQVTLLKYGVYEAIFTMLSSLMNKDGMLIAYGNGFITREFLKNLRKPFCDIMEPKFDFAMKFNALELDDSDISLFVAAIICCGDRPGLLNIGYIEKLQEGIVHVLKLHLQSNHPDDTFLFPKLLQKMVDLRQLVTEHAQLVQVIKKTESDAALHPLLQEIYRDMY
Kind of data set: (§1) In vitro transactivation of rat Peroxisome proliferator activated receptor alpha.

The target of data set [14] is T3, Peroxisome proliferator-activated receptor alpha (Rattus norvegicus) (UniProt P37230).
T3 sequence (whole entry): T2 sequence (P37230 whole entry)
Described as §1. More on the design: concentration or dose not given beside the values.

Data set [15] has as its target T4, Peroxisome proliferator-activated receptor alpha (Homo sapiens, UniProt Q07869).
T4 sequence (Q07869 whole entry): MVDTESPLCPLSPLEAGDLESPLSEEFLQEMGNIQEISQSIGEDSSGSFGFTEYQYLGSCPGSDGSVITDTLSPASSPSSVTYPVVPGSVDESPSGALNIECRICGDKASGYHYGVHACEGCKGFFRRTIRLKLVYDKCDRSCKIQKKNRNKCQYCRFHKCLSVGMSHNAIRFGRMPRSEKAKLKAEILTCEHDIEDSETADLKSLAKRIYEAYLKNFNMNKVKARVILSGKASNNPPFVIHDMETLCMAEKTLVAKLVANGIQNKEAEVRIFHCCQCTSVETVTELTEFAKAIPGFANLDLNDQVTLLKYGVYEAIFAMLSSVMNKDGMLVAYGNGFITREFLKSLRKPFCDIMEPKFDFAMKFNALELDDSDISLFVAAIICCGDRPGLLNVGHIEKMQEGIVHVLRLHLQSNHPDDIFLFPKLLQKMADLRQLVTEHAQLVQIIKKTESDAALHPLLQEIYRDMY
Put plainly: (§2) In vitro transactivation of human Peroxisome proliferator activated receptor alpha (hPPARalpha).

In data set [16] the target is T5, Peroxisome proliferator-activated receptor alpha (Homo sapiens) (UniProt Q07869).
T5 sequence (whole entry): T4 sequence (Q07869 whole entry)
The data set is described as §2. The arrangement: concentration or dose not given beside the values.

Data set [17] concerns the target T6, Peroxisome proliferator-activated receptor gamma (Homo sapiens, UniProt P37231).
T6 sequence (P37231 whole entry): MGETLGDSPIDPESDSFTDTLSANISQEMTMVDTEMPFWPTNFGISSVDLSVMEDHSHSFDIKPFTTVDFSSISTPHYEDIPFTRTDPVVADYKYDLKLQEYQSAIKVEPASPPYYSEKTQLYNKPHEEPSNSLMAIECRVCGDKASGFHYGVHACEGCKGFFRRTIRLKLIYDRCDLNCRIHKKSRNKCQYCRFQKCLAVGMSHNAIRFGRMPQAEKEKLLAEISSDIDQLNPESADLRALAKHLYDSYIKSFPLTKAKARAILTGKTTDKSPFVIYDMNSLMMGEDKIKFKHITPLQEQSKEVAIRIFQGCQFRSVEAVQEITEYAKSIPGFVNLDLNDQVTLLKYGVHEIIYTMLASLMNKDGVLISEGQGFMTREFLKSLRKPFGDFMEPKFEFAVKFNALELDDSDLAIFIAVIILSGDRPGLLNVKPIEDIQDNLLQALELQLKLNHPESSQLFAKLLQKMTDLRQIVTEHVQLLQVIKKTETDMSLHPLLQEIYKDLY
Description: In vitro transactivation of human Peroxisome proliferator activated receptor gamma

`CCO[C@@H](Cc1ccc(OC/C=C(\C)c2ccc(-c3ccc(/C(C)=C/COc4ccc(C[C@H](OCC)C(=O)O)cc4)cc3)cc2)cc1)C(=O)O` came in with a clearance in [1] of 2.4 mL/h/kg. In data set [2], this molecule registered a logP of 4.89. In addition, the bioavailability in data set [3] was determined as 58%. The molecule further had an AUC in data set [4] of 9790 ng·h/mL. Also, in [5], the Vd came to 0.08 L/kg. The peak level in data set [6] (Cmax) was 23200 ng/mL. The molecule also had a half-life in data set [7] of over 6.67 h. The ED50 amounted to 0.2 mg/kg in the data set on Mus musculus [8]; 0.2 mg/kg with Mus musculus [9]; 0.3 mg/kg in the data set on Mus musculus [10]; 0.4 mg/kg in the data set listed under Mus musculus [11] (Mus musculus, Blood, po). Also, the Max reduction is 91% with Mus musculus [8], 40% in the data set with Mus musculus [9], 60% in the data set on Mus musculus [10] and 53% in the data set listed under Mus musculus [11]. Moreover, the EC50 was 2.08 µM in data set [12], 19.9 µM in data set [13], 6.69 µM in [15] and 0.32 µM in data set [17]. The values for the Fold activation in data set [14] and in data set [16] were 203% and 247%, respectively.
